The values below come from patent US20250228826A1, “COMBINATION OF A GREMLIN-1 ANTAGONIST WITH AN INHIBITOR OF RAS-RAF-MEK-ERK SIGNALLING” (UCB BIOPHARMA SRL, priority 2022, published 2025).

Assay [1] relates to pancreatic tumours in KPC mice. Kind of assay: Tumour volume by 3D ultrasound imaging in KPC mice (Example 5). Format: in vivo, mouse. As to the method: The VisualSonics Vevo 3100 preclinical imaging platform (FUJIFILM VisualSonics, Toronto, Canada) was used for high-resolution ultrasound imaging to confirm tumour diagnosis and for weekly monitoring of tumour progression. Anaesthesia was induced and maintained with a mixture of isoflurane and medical air. Tumour volume was calculated weekly for each mouse and plotted longitudinally.
(§1) Mice were monitored 3 times weekly until a diagnosis of pancreatic cancer was made by abdominal palpation and confirmed by ultrasound imaging. […] Mice were monitored daily and sacrificed when reaching ethical endpoint.
(§2) Statistical assessment of survival of these mice from start of treatment was carried out using a Cox's proportional hazards model to calculate hazard ratios. Tumour volume data at day 7 data were analysed using a linear model suitable for a randomised design, fitting Treatment Tumour volume at day 0 was used as a covariate to increase the precision of the estimates.
The volume of the pancreatic tumours in control or treated KPC mice was measured over time using 3D tumour imaging by ultrasound.

In assay [2] the test system is pancreatic tumours in KPC mice. Kind of assay: Survival of KPC mice, Cox's proportional hazards model (Example 5). The settings on record: for Median survival: KPC mice, Example 5 cohort (Table 8), Ab7326 mIgG1 30 mg/kg s.c. twice weekly, Selumetinib 25 mg/kg p.o. b.i.d., UCB-554 10 mg/kg p.o. every 2 days; for Hazard ratio Ab7326/treatment: comparator Ab7326 alone. Format: in vivo, mouse.
Source text: (§3) LSL-Kras^G12D/+; Trp53^R172H/+; Pdx1-Cre (KPC) mice have been described previously (Hingorani et al., 2005). Mice were generated by crossing mice bearing Pdx1-Cre, and conditional LSL-KrasG12D or LSL-Trp53R172H alleles (strains 01XJ6 and 01XL9, Mouse Models of Human Cancer Consortium [MMHCC], NCI-Frederick, Frederick, MD, USA). Mice on a mixed background were bred in-house at the CRUK Beatson Institute and maintained in conventional caging with environmental enrichment, access to standard chow and water ad libitum. Genotyping was performed by Transnetyx (Cordoba, TN, USA). Mice of both sexes were recruited onto study. All animal experiments were performed under a UK Home Office licence and approved by the University of Glasgow Animal Welfare and Ethical Review Board.
as §1, §2

For assay [3], the system named is pancreatic tumours in KPC mice. Kind of assay: Survival of KPC mice from start of treatment, Kaplan-Meier and Log-Rank (Examples 3 and 4). Format: in vivo. The settings on record: for Median survival: KPC mice survival cohort.
Source text: as §3
Mice were monitored 3 times weekly until a diagnosis of pancreatic cancer was made by abdominal palpation and confirmed by ultrasound imaging. […] There were >12 mice per group. Mice were monitored daily and sacrificed either at 7 days post-initiation of treatment (4 mice per group) or when reaching ethical endpoint (>8 mice per group, symptoms include abdominal distension, cachexia, intermittent hunching or reduced mobility, piloerection, mild diarrhoea, anaemia). Statistical assessment of survival of these mice from start of treatment was carried out by Kaplan-Meier and Log-Rank analysis.
Mice were monitored at least weekly by palpation until pancreatic tumours were detectable.
For the survival cohort (Table 4), high resolution ultrasound imaging was performed weekly over the treatment period in order to monitor the tumour burden of each individual mouse on treatment. Mice remained on study and were closely monitored until ethical endpoint was reached, at which time they were sacrificed as per institutional guidelines.

The structures appear in SMILES notation. “And” between values parts separate entries of the source, which are not always exact repeats. Equal entries are not always repeated.

Turning to `Cn1cnc2c(F)c(Nc3ccc(Br)cc3Cl)c(C(=O)NOCCO)cc21` [Selumetinib, 6-(4-bromo-2-chloroanilino)-7-fluoro-N-(2-hydroxyethoxy)-3-methylbenzimidazole-5-carboxamide], the “tumour volume at day 7 after start of treatment compared to vehicle or Ab7326 treatment alone” value in assay [1] is listed as “mean tumour volume is reduced”. Also, the Median survival in assay [2] is 22 days; in assay [3] (Example 4, same doses as Table 4), 17 days; in assay [3] (Table 4 (text b395 gives days), Ab7326 mIgG1 30 mg/kg s.c. twice weekly, Selumetinib 25 mg/kg p.o. b.i.d., Selumetinib arm historical data), 17. The “Hazard ratio Vehicle/treatment” value in assay [2] (Table 10, combined dataset Table 4 + Table 8, Cox model) worked out at 1.77. In addition, in assay [2] (Table 10, combined dataset Table 4 + Table 8), the “Hazard ratio Ab7326/treatment” value amounted to 1.31. In assay [3] (survival of individual KPC mice on treatment, one line per mouse (Table 6)), the “Days on Rx” value was 9 Days and 13 Days and 15 Days and 17 Days (2×) and 20 Days and 32 Days and 33 Days.
With `NCC1CN(C(=O)c2c(Nc3ccc(I)cc3F)sc3ncccc23)C1` [UCB-554, [3-(Aminomethyl)azetidin-1-yl]-{2-[(2-fluoro-4-iodophenyl)amino]thieno[2,3-b]pyridin-3-yl}-methanone], the “tumour volume at day 7 after start of treatment compared to vehicle or Ab7326 treatment alone” value in assay [1] is given as “tumour volume is reduced”. Moreover, the “survival of KPC mice over vehicle only control or Ab7326 treatment” value in assay [2] (Example 5 cohort, in words) is listed as “moderate increase in survival”. Besides, the Median survival in assay [2] was 21 days. The “Hazard ratio Vehicle/treatment” value in assay [2] (Table 9, Example 5 cohort, Cox model, >1 favours treatment) was 2.04. In addition, the “Hazard ratio Ab7326/treatment” value in assay [2] (Table 9, Example 5 cohort, Cox model) came to 2.50.
